Source: the supplement of paper PMC8253809

How the values were obtained:
[1] = system: HGGX42 (H3.3 G34R paediatric high-grade glioma line); experiment: area under dose-response curve of % growth inhibition (log2 RLU vs DMSO / staurosporine), 1e-11 to 1e-4 M (% x log10 M); higher = more growth inhibition
Summary of the method: (§1)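 Cells were exposed in triplicate for 7 days (iAstro: 3 days) at 37 °C, 5% CO2 to a 10-point series of threefold dilutions with a mean top concentration of 35 μM. These were patient-derived pHGG/DIPG lines plus astrocytes, grown on 384-well plates coated with 1% Geltrex. Readout was CellTiter-Glo luminescence, log2-transformed and set per plate to % activity between solvent and positive controls, from which area under the curve was derived by trapezoid rule on a log-logistic fit or, failing that, a smoothing spline.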

[2] = system: HABS (astrocyte control); experiment: as above
Summary of the method: as §1

[3] = system: DIPGX9 (diffuse intrinsic pontine glioma line); experiment: as above
Summary of the method: as §1

[4] = system: SUDIPGXIII (diffuse intrinsic pontine glioma line); experiment: as above
Summary of the method: as §1

[5] = system: DIPGX7 (H3.3 K27M diffuse intrinsic pontine glioma line); experiment: as above
Summary of the method: as §1

[6] = system: SUDIPGXXI (diffuse intrinsic pontine glioma line); experiment: as above
Summary of the method: as §1

[7] = system: iAstro (astrocyte control); experiment: as above
Summary of the method: as §1

[8] = system: DIPGX29 (H3.3 K27M diffuse intrinsic pontine glioma line); experiment: as above
Summary of the method: as §1

[9] = system: HGGX6 (H3.3 G34R paediatric high-grade glioma line); experiment: as above
Summary of the method: as §1

[10] = system: SUDIPGIV (diffuse intrinsic pontine glioma line); experiment: as above
Summary of the method: as §1

[11] = system: DIPGX37 (H3.3 K27M diffuse intrinsic pontine glioma line); experiment: as above
Summary of the method: as §1

[12] = system: SUDIPGXVII (diffuse intrinsic pontine glioma line); experiment: as above
Summary of the method: as §1

[13] = system: SUDIPGVI (diffuse intrinsic pontine glioma line); experiment: as above
Summary of the method: as §1

[14] = system: HGGX2 (paediatric high-grade glioma line); experiment: as above
Summary of the method: as §1

[15] = system: SUDIPGXIX (diffuse intrinsic pontine glioma line); experiment: as above
Summary of the method: as §1

[16] = system: HGGX39 (paediatric high-grade glioma line); experiment: as above
Summary of the method: as §1

[17] = system: HGGX42; experiment: maximal growth inhibition (yFin) relative to DMSO / staurosporine; higher = more efficacious
Summary of the method: (§2)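 EC50 and maximal response (yFin) were derived from the lowest-AICc fit, either three- or four-parameter log-logistic. The data were pooled CellTiter-Glo luminescence values, log2-transformed and normalised per plate to % activity between negative (solvent) and positive controls. Patient-derived pHGG/DIPG cell lines and astrocyte controls on 1% Geltrex-coated 384-well plates received a 10-point threefold dilution series (mean top concentration 35 μM) by pin tool, in triplicate, for 7 days (iAstro 3 days) at 37 °C, 5% CO2.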

[18] = system: DIPGX7; experiment: as above
Summary of the method: as §2

[19] = system: SUDIPGXXI; experiment: as above
Summary of the method: as §2

[20] = system: DIPGX29; experiment: as above
Summary of the method: as §2

[21] = system: HGGX6; experiment: as above
Summary of the method: as §2

[22] = system: SUDIPGIV; experiment: as above
Summary of the method: as §2

[23] = system: DIPGX37; experiment: as above
Summary of the method: as §2

[24] = system: HGGX39; experiment: as above
Summary of the method: as §2

[25] = system: HGGX42; experiment: EC50 (inflection of fitted growth-inhibition curve) (log10 M)
Summary of the method: as §2

[26] = system: DIPGX7; experiment: as above
Summary of the method: as §2

[27] = system: SUDIPGXXI; experiment: as above
Summary of the method: as §2

[28] = system: DIPGX29; experiment: as above
Summary of the method: as §2

[29] = system: HGGX6; experiment: as above
Summary of the method: as §2

[30] = system: SUDIPGIV; experiment: as above
Summary of the method: as §2

[31] = system: DIPGX37; experiment: as above
Summary of the method: as §2

[32] = system: HGGX39; experiment: as above
Summary of the method: as §2

[33] = system: SUDIPGXIX; experiment: maximal growth inhibition (yFin) relative to DMSO / staurosporine; higher = more efficacious
Summary of the method: as §2

[34] = system: SUDIPGXIX; experiment: EC50 (inflection of fitted growth-inhibition curve) (log10 M)
Summary of the method: as §2

[35] = system: DIPGX9; experiment: maximal growth inhibition (yFin) relative to DMSO / staurosporine; higher = more efficacious
Summary of the method: as §2

[36] = system: iAstro; experiment: as above
Summary of the method: as §2

[37] = system: DIPGX9; experiment: EC50 (inflection of fitted growth-inhibition curve) (log10 M)
Summary of the method: as §2

[38] = system: iAstro; experiment: as above
Summary of the method: as §2

[39] = system: HGGX2; experiment: maximal growth inhibition (yFin) relative to DMSO / staurosporine; higher = more efficacious
Summary of the method: as §2

[40] = system: HGGX2; experiment: EC50 (inflection of fitted growth-inhibition curve) (log10 M)
Summary of the method: as §2

Structure (SMILES) | area under dose-response curve [1] | area under dose-response curve [2] | area under dose-response curve [3] | area under dose-response curve [4] | area under dose-response curve [5] | area under dose-response curve [6] | area under dose-response curve [7] | area under dose-response curve [8] | area under dose-response curve [9] | area under dose-response curve [10] | area under dose-response curve [11] | area under dose-response curve [12] | area under dose-response curve [13] | area under dose-response curve [14] | area under dose-response curve [15] | area under dose-response curve [16] | maximal growth inhibition [17] | maximal growth inhibition [18] | maximal growth inhibition [19] | maximal growth inhibition [20] | maximal growth inhibition [21] | maximal growth inhibition [22] | maximal growth inhibition [23] | maximal growth inhibition [24] | EC50 (log10 M) [25] | EC50 (log10 M) [26] | EC50 (log10 M) [27] | EC50 (log10 M) [28] | EC50 (log10 M) [29] | EC50 (log10 M) [30] | EC50 (log10 M) [31] | EC50 (log10 M) [32] | maximal growth inhibition [33] | EC50 (log10 M) [34] | maximal growth inhibition [35] | maximal growth inhibition [36] | EC50 (log10 M) [37] | EC50 (log10 M) [38] | maximal growth inhibition [39] | EC50 (log10 M) [40]
CC(C(O)c1ccc(O)cc1)N1CCC(Cc2ccccc2)CC1 (centres undefined) [IFENPRODIL] | 66.8 | 0.152 | 18.8 | 27.3 | 57.3 | 85.1 | 13.3 | 39.3 | 25.9 | 29.8 | 48.4 | 17.3 | 18.5 | 8.88 | 3.16 | 44.1 | 61.8% | 45.7% | 75.3% | 29.5% | 20.6% | 45.1% | 59.3% | 36.6% | -5.06 | -4.83 | -4.85 | -4.85 | -4.95 | -4.66 | -4.82 | -4.86 | – | – | – | – | – | – | – | –
N[C@H]1C[C@@H]1c1ccc(-c2cccc(O)c2)cc1 [OG-L002] | 100 | 7.06 | 24.4 | 0 | 138 | 7.31 | 35.4 | 67.6 | 51.3 | 174 | 78.6 | 103 | 3.43 | 81.6 | 222 | 78.2 | – | – | – | – | – | – | – | – | – | – | – | – | – | – | – | – | 87.2% | -6.55 | – | – | – | – | – | –
Cc1nc(Nc2ncc(C(=O)Nc3c(C)cccc3Cl)s2)cc(N2CCN(CCO)CC2)n1 [DASATINIB] | 83.4 | 143 | 80 | 16.1 | 26.2 | 109 | 27.6 | 54.9 | 61.1 | 60.9 | 39.6 | 22 | 12 | – | 51.9 | 77.5 | – | 28.2% | 110% | – | – | – | – | 41.3% | – | -4.59 | -4.85 | – | – | – | – | -5.3 | 50.4% | -4.77 | 64.4% | 34.9% | -4.85 | -4.82 | – | –
O=C(CCCCCCC(=O)Nc1ccc([C@H]2O[C@@H](CSc3nc(-c4ccccc4)c(-c4ccccc4)o3)C[C@@H](c3ccc(CO)cc3)O2)cc1)NO [TUBACIN] | 0 | 4.17 | 5.5 | 0 | 22.1 | 43.2 | 17 | 8.41 | 0 | 0.838 | 3.94 | 1.78 | 1.17 | 3.24 | 8.78 | 4.96 | – | – | 51.8% | – | – | – | – | – | – | – | -4.84 | – | – | – | – | – | – | – | – | 29.5% | – | -4.6 | – | –
N=C(N)c1ccc(N=NNc2ccc(C(=N)N)cc2)cc1 [BERENIL] | 0 | 0.995 | 5.74 | 14.9 | 20.8 | 53.1 | 1.3 | 41.8 | 52.7 | 43.8 | 90.7 | 13.8 | 15.1 | 0 | 0 | 84.7 | – | – | 46.9% | – | – | 38.7% | – | 68.7% | – | – | -5.13 | – | – | -5.18 | – | -5.18 | – | – | – | – | – | – | – | –
CN1CCc2c(c3ccccc3n2Cc2ccc(C(=O)NO)cc2)C1 [TUBASTATIN A] | 9.08 | 14.5 | 32.9 | 6.63 | 5.69 | 82.4 | 37.8 | 16.3 | 6.92 | 24.1 | 24.4 | 17.2 | 0 | 21.2 | 24.1 | 24.6 | – | – | 99.5% | – | – | 30.1% | – | – | – | – | -4.83 | – | – | -4.8 | – | – | – | – | 29.3% | 54% | -4.76 | -4.7 | – | –
Fc1ccc(N2CCN(CCC3OCCc4ccccc43)CC2)cc1 (centres undefined) | 37.8 | 1.16 | 13.4 | 13.4 | 37.3 | 87.1 | 24 | 27.2 | 14.9 | 15.7 | 33.4 | 8.36 | 12.8 | 15.4 | 0 | 18.1 | 38.6% | 40.7% | 57.5% | 26.6% | – | – | 34.9% | – | -4.98 | -4.91 | -5.02 | -5.02 | – | – | -4.97 | – | – | – | – | 23.3% | – | -5.03 | – | –
CCOC(=O)c1ccc(C#Cc2ccc3c(c2)C(C)(C)CCS3)nc1 [TAZAROTENE] | 11.6 | 0 | 25.9 | 14.7 | 5.61 | 230 | 17 | 10.3 | 15.5 | 45.5 | 19.5 | 12.6 | 0 | 12.3 | 0 | 27.7 | – | – | 107% | – | – | – | – | – | – | – | -5.98 | – | – | – | – | – | – | – | – | 21.6% | – | -4.78 | – | –
O=C([C@@H](Cc1cccc(C(F)(F)F)c1)NS(=O)(=O)c1cc(F)c2c(c1)CCNC2)N1CCCC1 [PFI-2] | 0 | 5.29 | 0 | 1.68 | 4.47 | 14.4 | 6.82 | 14 | 5.68 | 4.77 | 0.851 | 3.09 | 8.26 | 6.57 | 0 | 4.9 | – | – | 24.8% | 27.5% | – | – | – | – | – | – | -4.58 | -4.51 | – | – | – | – | – | – | – | – | – | – | – | –
CC1=C(/C=C/C(C)=C/C=C/C(C)=C/C(=O)O)C(C)(C)CCC1 [TRETINON] | 28.5 | 0 | 97.5 | 0 | 16.1 | 296 | 14.6 | 40.4 | 27.5 | 44.1 | 46.7 | 19.9 | 22 | 71.1 | 14.9 | 42.5 | – | – | 94.3% | – | – | – | – | – | – | – | -7.13 | – | – | – | – | – | – | – | – | – | – | – | 24.3% | -6.92
COc1ccc(Cn2ccc3ccc(C(=O)NO)cc32)cc1 | 25.8 | 11.9 | 19.1 | 30.1 | 20.3 | 91.2 | 47 | 24.9 | 5.76 | 6.64 | 30.6 | 7.72 | 2.84 | 14.8 | 24.5 | 10.3 | – | – | 117% | – | – | – | – | – | – | – | -4.78 | – | – | – | – | – | 31.4% | -4.78 | – | 47.6% | – | -4.67 | – | –
CC(C)N(CCCNC(=O)Nc1ccc(C(C)(C)C)cc1)C[C@H]1O[C@@H](n2cc(Br)c3c(N)ncnc32)[C@H](O)[C@@H]1O [SGC0946] | 66.7 | 8.16 | 24.1 | 40.5 | 54 | 82.6 | 21.5 | 58.4 | 33.2 | 11.6 | 56.4 | 27.7 | 20 | 58.5 | 57.8 | 14.8 | 102% | 35.5% | 107% | 100% | 43% | – | 65.1% | – | -4.53 | -4.86 | -4.77 | -4.49 | -4.77 | – | -4.52 | – | 107% | -4.54 | 30.4% | 25.3% | -4.79 | -4.87 | 100% | -4.58
